Laboratory results published in patent US11135186B2, “Regulators of the endoplasmic reticulum proteostasis network” (The Scripps Research Institute, priority 2015, dated 2021).

Assays:
[1] = tested on: BiP expression in ALMC-2 cells; assay: BiP qPCR in ALMC-2 cells; format: cell-based, human; conditions: 10 μM, 6 h
Procedure: Cells were treated as described at 37° C., washed with Dulbecco's phosphate-buffered saline (Gibco), and then RNA was extracted using the RNeasy Mini Kit (Qiagen). qPCR reactions were performed on cDNA prepared from 500 ng of total cellular RNA using the QuantiTect Reverse Transcription Kit (Qiagen). The FastStart Universal SYBR Green Master Mix (Roche), cDNA, and appropriate human primers^4 or mouse primers (BiP; […] (SEQ ID NO: 5) and […] (SEQ ID NO: 6) purchased from Integrated DNA Technologies were used for amplifications (45 cycles of 1 min at 95° C., 10 s at 95° C., 30 sec at 60° C.) in an ABI 7900HT Fast Real Time PCR machine. Primer integrity was assessed by a thermal melt to confirm homogeneity and the absence of primer dimers. Transcripts were normalized to the housekeeping gene Rplp2 and all measurements were performed in triplicate. Data were analyzed using the RQ Manager and DataAssist 2.0 softwares (ABI).

^FTTTR^WT = assay: [35S] metabolic labeling, secretion of flag-tagged TTR^WT from HepG2^ATF6 cells; format: cell-based; conditions: 15 h pretreatment, 10 μM compound or 1 μM Tg, 4 h chase
Procedure: HepG2 cells or HEK293T cells plated on poly-D-lysine coated plates were metabolically labeled in DMEM-Cys/-Met (CellGro) supplemented with glutamine, penicillin/streptomycin, dialyzed fetal bovine serum, and EasyTag EXPRESS^35S Protein Labeling Mix (Perkin Elmer) for 30 min. Cells were washed twice with complete media and incubated in prewarmed DMEM for the indicated times. Media or lysates were harvested at the indicated times. Lysates were prepared in RIPA buffer with fresh protease inhibitor cocktail (Roche). FLAG tagged TTR variants or ALLC were immunopurified using M1 anti-FLAG agarose beads (Sigma-Aldrich) and washed three times with RIPA buffer. The immunoisolates were then eluted by boiling in Laemmli buffer and separated on SDS-PAGE. For total secreted media, 15 uL aliquots from media incubated for 4 hrs on pulsed cells were run on a SDS-PAGE. The gels were then dried, exposed to phosphorimager plates (GE Healthcare), and imaged with a Typhoon imager. Band intensities were quantified by densitometry in ImageQuant. Fraction secreted was calculated using the equation: fraction secreted=[extracellular [^35S]-LC signal at t=t/(extracellular [^35S]-LC signal at t=0+intracellular [^35S]-LC signal at t=0)]. Fraction remaining was calculated using the equation: [(extracellular [^35S]-LC signal at t=t+intracellular [^35S]-LC signal at t=t)/(extracellular [^35S]-LC signal at t=0+ intracellular [^35S]-LC signal at t=0)].

HepG2 cells = assay: HepG2 viability (CellTiter-Glo); format: cell-based
Procedure: HepG2 cells were plated at 5,000 cells/well in a translucent, flat-bottomed 96 well plate, and treated for 48 hr with vehicle, 10 μM Tg or 10 μM ER proteostasis regulator. ALMC-2 or KAS-6/1 cells were plated at 33,000 cells/well in 96-well plates then treated with proteostasis regulators for 16 h as described. Cell metabolic activity was measured using the CellTiter-Glo assay (Promega), which reports on intracellular ATP concentration. CellTiter-Glo reagent was added to cell culture media at a 1:1 ratio and incubated for 2 minutes on an orbital shaker to induce cell lysis. The plate was then incubated at room temperature for 10 minutes to stabilize the luminescent signal and read on a Tecan F200 Pro microplate reader.

HEK293T-Rex cells = assay: mRNA-Seq transcriptional profiling and geneset analysis in HEK293T-Rex cells; format: cell-based, human; conditions: for activation of the ATF6 geneset relative to Tg: mRNA-seq geneset analysis; for BiP mRNA-Seq fold change (relative to Vh) / GRP94 mRNA-Seq fold change (relative to Vh) / SEL1L mRNA-Seq fold change (relative to Vh): ATF6-selective gene; for BiP mRNA-Seq fold change (relative to Vh) / GRP94 mRNA-Seq fold change (relative to Vh) / SEL1L mRNA-Seq fold change (relative to Vh) / DNAJB1 mRNA-Seq fold change (relative to Vh) / HSPA1A mRNA-Seq fold change (relative to Vh) / HSPA8 mRNA-Seq fold change (relative to Vh) / ASNS mRNA-Seq fold change (relative to Vh) / DDIT3 (CHOP) mRNA-Seq fold change (relative to Vh) / TrIB3 mRNA-Seq fold change (relative to Vh) / ERdj3 mRNA-Seq fold change (relative to Vh) / HYOU1 mRNA-Seq fold change (relative to Vh) / p58IPK mRNA-Seq fold change (relative to Vh) / DNAJC10 mRNA-Seq fold change (relative to Vh) / HSPA13 mRNA-Seq fold change (relative to Vh) / SEC24D mRNA-Seq fold change (relative to Vh): compounds 10 μM, Tg 1 μM; for DNAJB1 mRNA-Seq fold change (relative to Vh) / HSPA1A mRNA-Seq fold change (relative to Vh) / HSPA8 mRNA-Seq fold change (relative to Vh): HSF1 target gene; for ASNS mRNA-Seq fold change (relative to Vh) / DDIT3 (CHOP) mRNA-Seq fold change (relative to Vh) / TrIB3 mRNA-Seq fold change (relative to Vh): PERK target gene; for ERdj3 mRNA-Seq fold change (relative to Vh) / HYOU1 mRNA-Seq fold change (relative to Vh) / p58IPK mRNA-Seq fold change (relative to Vh): XBP1s- or ATF6-target gene; for DNAJC10 mRNA-Seq fold change (relative to Vh) / HSPA13 mRNA-Seq fold change (relative to Vh) / SEC24D mRNA-Seq fold change (relative to Vh): XBP1s-selective gene
Procedure: HEK293T-Rex and HEK293^DAX cells in 12-well plates were treated for 6 h with vehicle, 1 μM Tg, 10 μM TMP (in HEK293^DAX), or 10 μM 132, 147 or 263 in biological triplicate at 37° C. Cells were harvested, and RNA was extracted using the RNeasy Mini Kit (Qiagen). Total RNA was quantified using NanoDrop (ND-1000). Samples were run on the Illuina HiSeq system.
Single end, 100 bp-long reads from RNA-Seq experiments were aligned to the GRCh37.p13 human genome reference assembly using SeqMan NGen 11.2.1 (DNAStar, Inc.). The assembly data were then imported into ArrayStar with QSeq (DNAStar, Inc.) to quantify the gene expression levels. The sequence counts were normalized to reads per kilobase per million (RPKM) after filtering out non-mRNA sequence features. The statistical significance of the difference between the expression levels of a gene under different conditions was assessed using a Student's t-test with the Benjamini-Hochberg multiple testing correction.
ATF6- and XBP1s-selective target genes were identified from transcriptional profiles of HEK293D^X cells following stress-independent activation of TMP-dependent DHFR-ATF6 and/or tetracycline inducible XBP1s, as previously described^4. PERK-selective target genes were identified from^8. Only ATF6-, XBP1s- or PERK-selective genes induced >1.5 fold in Tg-treated samples were used in this analysis. The log transformed fold-increase of these target genes in HEK293T-Rex cells treated with the respective ER proteostasis regulators were then normalized to the log transformed fold increase of these genes induced by Tg treatment. The plots shown in FIG. 5b-e were prepared as box and whisker plots using Kaleidograph. Differential activation of the ATF6, XBP1s, and PERK genesets was assessed by one-way ANOVA and significance of pairwise comparison confirmed by unpaired t-test. An analogous strategy was employed to prepare the heat map using transcriptional data from the MGE analysis.

SMILES	expression of the ATF6 target gene BiP in ALMC-2 cells [1]	^FTTTR^WT secretion (in words) (^FTTTR^WT)	HepG2 viability (HepG2 cells; 10 μM)	HepG2 viability (HepG2 cells; 100 μM)	activation of the ATF6 geneset relative to Tg (HEK293T-Rex cells; 10 μM) [%]	BiP mRNA-Seq fold change (relative to Vh) (HEK293T-Rex cells; 6 h) [fold]	GRP94 mRNA-Seq fold change (relative to Vh) (HEK293T-Rex cells; 6 h) [fold]	SEL1L mRNA-Seq fold change (relative to Vh) (HEK293T-Rex cells; 6 h) [fold]	DNAJB1 mRNA-Seq fold change (relative to Vh) (HEK293T-Rex cells; 6 h) [fold]	HSPA1A mRNA-Seq fold change (relative to Vh) (HEK293T-Rex cells; 6 h) [fold]	HSPA8 mRNA-Seq fold change (relative to Vh) (HEK293T-Rex cells; 6 h) [fold]	ASNS mRNA-Seq fold change (relative to Vh) (HEK293T-Rex cells; 6 h) [fold]	DDIT3 (CHOP) mRNA-Seq fold change (relative to Vh) (HEK293T-Rex cells; 6 h) [fold]	TrIB3 mRNA-Seq fold change (relative to Vh) (HEK293T-Rex cells; 6 h) [fold]	ERdj3 mRNA-Seq fold change (relative to Vh) (HEK293T-Rex cells; 6 h) [fold]	HYOU1 mRNA-Seq fold change (relative to Vh) (HEK293T-Rex cells; 6 h) [fold]	p58IPK mRNA-Seq fold change (relative to Vh) (HEK293T-Rex cells; 6 h) [fold]	DNAJC10 mRNA-Seq fold change (relative to Vh) (HEK293T-Rex cells; 6 h) [fold]	HSPA13 mRNA-Seq fold change (relative to Vh) (HEK293T-Rex cells; 6 h) [fold]	SEC24D mRNA-Seq fold change (relative to Vh) (HEK293T-Rex cells; 6 h) [fold]	also measured
Cc1ccc(O)c(N/C=C/C(=O)c2ccc(F)cc2)c1 [Compound 132]	induced	did not significantly influence	do not significantly influence	reduce	75	9.1	3.5	4.9	3.0	9.3	1.5	2.7	10.6	5.8	2.9	3.6	3.7	1.4	2.6	3.1	slope of log2 mRNA fold change with compound versus with Tg (HEK293T-Rex cells; 10 μM, 6 h, ER proteostasis genes): 1
Cc1ccc(O)c(NC(=O)CCc2ccccc2)c1 [Compound 147]	induced	did not significantly influence	do not significantly influence	reduce	45	3.3	1.8	2.2	1.6	3.2	1.3	1.0	1.7	1.0	1.7	1.8	1.8	1.1	1.2	1.4	–
O=[N+]([O-])c1ccc(N/N=C/c2ccccc2O)cc1 [Compound 263]	does not significantly induce	did not significantly influence	do not significantly influence	reduce	50	5.7	2.5	2.7	1.4	2.5	1.3	1.5	2.0	1.3	2.4	2.7	2.9	1.3	1.7	2.1	–
